Experiment [1] concerns two-spotted spider mites. The experiment can be described thus: Miticidal test on two-spotted spider mite (leaf spray). Type of experiment: in vivo. Conditions: Tetranychus urticae, in Phaseolus vulgaris, 48 h, read-out: Mortality of mites (%). An excerpt: A piece of non-woven fabric (4.5×5.5 cm) was suspended inside a plastic cup through an incision made in the lid of the plastic cup. After water was poured into the cup, the cup was covered with the lid. A kidney bean leaf (about 3.5×4.5 cm) was then placed on the sufficiently soaked, non-woven fabric. Another kidney bean leaf with two-spotted spider mites (about 30 mite samples) was placed on top of the first leaf, and the fabric and leaves were placed in a thermostatic chamber having a temperature of 25±2° C. and a humidity of 40% overnight. Next morning the top leaf was removed as the mite population had already moved to the lower leaf.
Miticidal formulations containing the compound of the invention (100 ppm and 5 ppm) were prepared by adding an aqueous solution (100 ppm) of Sorpol 355 (manufactured by Tobo Kagaku Co., Ltd.) to a methanol solution of the compound of the invention. These miticidal formulations were sprayed onto the leaves, and the leaves were air-dried and placed in a thermostatic chamber (25±2° C. and a humidity of 50%). The mortality rate of the two-spotted spider mites was calculated after 2 days.

Experiment [2] relates to two-spotted spider mites. Description: Ovicidal test on two-spotted spider mites. It is filed as in vivo, two-spotted spider mite. The settings on record: Tetranychus urticae, 144 h; 10 ppm spray, ovicidal rate 6 days after spraying. Here is the method:
A piece of non-woven fabric (4.5×5.5 cm) was suspended inside a plastic cup through an incision made in the lid of the plastic cup. After water was poured into the cup, the cup was covered with the lid. A kidney bean leaf (about 3.5×4.5 cm) was then placed on the sufficiently soaked, non-woven fabric. Twenty female adults of two-spotted spider mite were placed on the top of the leaf, and the fabric and leaf were placed in a thermostatic chamber having a temperature of 25±2° C. and a humidity of 40% and 16L8D. The next day, after the number of the female adults was adjusted once more to 20, 2 mL of a miticidal formulation containing the compound of the invention (10 ppm) prepared in the same manner as in test example 1 was sprayed onto the leaf, and the leaf was air-dried and placed in a thermostatic chamber (25±2° C. and a humidity of 50%). The ovicidal rate of the two-spotted spider mites was calculated 6 days after the spraying of the miticidal formulation.

Drawing on patent US11116218B2, “Isoxazole compound or a salt thereof” (OAT AGRIO CO., LTD., priority 2017, dated 2021), this text covers mortality and inhibition for three compounds.

SMILES strings stand for the structures.

As for `Cc1cc(Cl)c(-c2cc(C(F)F)on2)cc1SCC(F)(F)F` [Compound 55, 3-(2-chloro-4-methyl-5-((2,2,2-trifluoroethyl)thio)phenyl)-5-(difluoromethyl)isoxazole], in experiment [1], the mortality at 5 ppm is 100% and the mortality at 100 ppm worked out at 100%. Also, the inhibition at 10 ppm in experiment [2] was 100%.

For the compound `Cc1cc(Cl)c(-c2cc(C(F)F)on2)cc1[S+]([O-])CC(F)(F)F` (stereo not drawn) [Compound 56, 3-(2-chloro-4-methyl-5-((2,2,2-trifluoroethyl)sulfinyl)phenyl)-5-(difluoromethyl)isoxazole], in experiment [1], the mortality at 5 ppm was 100% and the mortality at 100 ppm came out at 100%. This compound registered an inhibition at 10 ppm in experiment [2] of 100%.

`Cc1ccc(-c2cc(C(F)(F)F)on2)cc1SCC(F)(F)F` [Compound A, reference compound]: in experiment [1], the mortality at 5 ppm was found to be 0% and the mortality at 100 ppm was 100%. In experiment [2], this compound had an inhibition at 10 ppm of 0%.
